From patent US12486283B2, “Crystalline salt of eribulin” (priority 2020, dated 2025)
“Also recorded” adds a separate entry of the source. Counter-ions that a name gives are not always drawn.

Columns and labels:
Assay type in all cases: physicochemical
[1] = Stability test: purity / related substances by high-performance liquid chromatography after storage; settings: 75±5% RH; for purity by high-performance liquid chromatography: stored sealed in amber vial at 40±2° C.
Method: (§1) After 2 weeks and 4 weeks of storage, the occurrence and increase of related substances in each sample were evaluated by high-performance liquid chromatography, and changes were confirmed by X-ray powder diffraction analysis and differential scanning calorimetry to evaluate stability.

[2] = Hygroscopicity test by dynamic vapor adsorption and desorption (DVS); settings: for hygroscopicity compared with amorphous eribulin mesylate: 25° C. and 80% RH; for stability to moisture compared with amorphous eribulin mesylate: DVS hygroscopicity test; for crystalline form after the hygroscopicity test: after the test was completed
Method: Eribulin edisylate obtained in Examples 2, 5, and 7 and the amorphous eribulin mesylate, which is the active component of commercially available Halaven, were subjected to hygroscopicity test by repeating moisture adsorption and desorption once at an interval of 5% RH in an isothermal condition of 25° C. and a relative humidity of 2 to 98% using dynamic vapor adsorption and desorption (DVS) (dynamic vapor adsorption, VTI SGA-100, TA Instruments).

[3] = Stability test: properties (appearance) and X-ray powder diffraction analysis after storage; settings: 40±2° C., 75±5% RH
Method: Diffraction patterns were obtained in the range of 3 to 40° 2θ using a X-ray powder diffractometer, and the X-ray powder diffraction analysis conditions were as follows. • Instrument: BrukerA26X1 D2 Phaser • Time per step: 0.5 s • Scanning method: Continuous PSD fast • Detector: Lynxeye (1D mode) (2) Differential Scanning Calorimetry (DSC)
as §1

Compound	purity by high-performance liquid chromatography ([1]; time 0 week)	purity by high-performance liquid chromatography ([1]; time 2 weeks)	purity by high-performance liquid chromatography ([1]; time 4 weeks)	purity by high-performance liquid chromatography ([1]; time 4 weeks, listed as eribulin mesylate)	deliquescence during the hygroscopicity test ([2]; DVS, 25° C., 2 to 98% RH)	change in properties ([3]; 2nd week)	change in properties ([3]; 4th week)	solid state over time in the stability test ([3]; over time)	X-ray powder diffraction analysis result (solid form) ([3]; time 0 week)	X-ray powder diffraction analysis result (solid form) ([3]; time 0 week, listed as eribulin mesylate)	X-ray powder diffraction analysis result (solid form) ([3]; time 2 weeks)	X-ray powder diffraction analysis result (solid form) ([3]; time 4 weeks)	decrease in purity (increase in related substances) ([1]; 40±2° C., during 4 weeks)	stability to heat and humidity compared with eribulin mesylate ([1]; 40±2° C., up to 4 weeks, Ammonium Salt)	hygroscopicity compared with amorphous eribulin mesylate [2]	stability to moisture compared with amorphous eribulin mesylate ([2]; 25° C.)	crystalline form after the hygroscopicity test ([2]; DVS, 25° C., 2 to 98% RH)	Hygroscopicity (EP standard (25° C., 80% RH)) ([2]; DVS, 25° C.)	change in properties ([3]; whole stability test period (4 weeks))
C=C1C[C@@H]2CC[C@@]34C[C@H]5O[C@H]6[C@@H](O3)[C@H]3O[C@H](CC[C@@H]3O[C@H]6[C@H]5O4)CC(=O)C[C@@H]3[C@@H](OC)[C@@H](C[C@H](O)CN)O[C@H]3C[C@H]3O[C@@H](CC[C@@H]1O2)C[C@@H](C)C3=C.CS(=O)(=O)O [Eribulin mesylate]	99.66%	88.00%	7.30%	7%	deliquescence was observed	the solid deliquesced and the color changed to yellow	the deliquescent state was maintained and the color changed from yellow to brown	deliquescence was observed	amorphous	amorphous solid	deliquescence	deliquescence							
C=C1C[C@@H]2CC[C@@]34C[C@H]5O[C@@H]6C(O[C@H]7CC[C@H](CC(=O)C[C@@H]8[C@@H](OC)[C@@H](C[C@H](O)CN)O[C@H]8C[C@H]8O[C@@H](CC[C@@H]1O2)C[C@@H](C)C8=C)O[C@@H]7[C@@H]6O3)[C@H]5O4 [Example 2, Eribulin Edisylate Ammonium Salt]	99.73%	99.50%	99.35%						crystalline		maintain	maintain	≤ 0.5%	excellent stability to heat and humidity; also recorded: more stable to heat and humidity	lower hygroscopicity	superior stability to moisture	initial crystalline form was maintained	5.4%	No change in properties
Eribulin Edisylate Dicyclohexylamine Salt [Example 7]															lower hygroscopicity	superior stability to moisture	initial crystalline form was maintained	5.6%	
Eribulin Edisylate Cyclohexylamine Salt [Example 5]															lower hygroscopicity	superior stability to moisture	initial crystalline form was maintained	5.2%	
